Columns and labels:
STAT3 signal = experiment: Western blotting of phosphorylated STAT3; assay type: cell-based, mouse; conditions: EB3DR-EpiSC, 2nd day after stimulation
Text: Besides, the EB3DR-EpiSC was stimulated with LIF, the resultant cell was collected on the 2nd day after stimulation, and the activation of a STAT3 signal was checked by the Western blotting. The activation of a STAT3 signal was checked on the basis of the presence of phosphorylated STAT3. The phosphorylated STAT3 was detected by using, as a primary antibody, an anti-P-STAT3 antibody (#9145, 1:2000, manufactured by Cell Signaling Technology Inc.) […] specifically recognizing phosphorylated STAT3.

EB3DR-EpiSC [1] = experiment: Chimera forming ability after injection into mouse blastocyst; assay type: in vivo; conditions: EpiSC treated with LIF and the inhibitor, about 10 cells injected per embryo
Method: Furthermore, the chimera forming ability of the EB3DR-EpiSC treated with LIF and IWP-2 was checked. Specifically, the embryo of a BDF1 (C57BL6/N; DBA1 F1) mouse was cultured in Medium 2 (manufactured by Millipore Corporation) to the eight-cell stage or morula stage. The resultant embryo was transferred to KSOM medium (manufactured by Millipore Corporation) and cultured for 24 hours to be developed to the blastocyst stage. For the injection into an embryo, the cell was dissociated into a single cell by a trypsin treatment, and the resultant was suspended in a medium. A zona pellucida was perforated under a microscope by using a piezoelectric micromanipulator, and a chimeric embryo was produced by injecting approximately 10 cells into a space below the zona pellucida in each embryo. After the injection, the embryo was cultured in KSOM medium until a blastomere was obtained, and then, the resultant was transplanted into the uterus of a pseudopregnant ICR recipient female mouse. The chimera formation was checked on the basis of the color of a fur. A cell derived from BDF1×C57BL/6 grows a black fur, and a cell derived from 129/Ola grows a brown (agouti-colored) fur. […]

Wnt/β catenin signal = experiment: Western blotting of β catenin in cytoplasmic and nuclear fractions; assay type: cell-based, mouse; conditions: EB3DR-EpiSC; for inhibition of Wnt/β catenin signal: Western blotting (FIG. 4 (A))
Method: First, in order to confirm the effect of IWP-2 on a Wnt/β catenin signal inhibition, the amount of protein in β catenin was checked by Western blotting. The EB3DR-EpiSC was cultured under the aforementioned culturing conditions, IWP-2 (at a final concentration of 5 nM) was added thereto, and the resultant was cultured for another 2 days. As a control, the same amount of DMSO was added instead of IWP-2. Next, Nuclear/Cytosol Fractionation Kit (Bio Vision, manufactured by Mountain View, Calif.) was used in accordance with the manufacturer's manual to separate a cytoplasmic fraction and a nuclear fraction. Each of these fractions thus obtained was dissolved in Laemmli Sample Buffer (Bio-Rad, manufactured by Hercules, Calif.) to perform SDS-PAGE. A protein separated by the SDS-PAGE was blotted on a PVDF transfer membrane (manufactured by Millipore Corporation) to perform a primary antibody reaction.
As a primary antibody, an anti-β catenin antibody (#9562, 1:1000), an anti-(β-actin antibody (#3770, 1:1000), or an anti-histone H3 antibody (#4499, 1:2000) purchased from Cell Signaling Technology Inc. was used. As a secondary antibody, for the anti-β catenin antibody or the anti-histone H3 antibody, an anti-rabbit IgG Horseradish peroxidase-conjugated antibody (NA934V, 1:100, manufactured by GE Healthcare UK, Little Chalfont, UK) was used for the reaction, and for the anti-β-actin antibody, an anti-mouse IgG Horseradish peroxidase-conjugated antibody (NA931V, 1:1000, manufactured by GE Healthcare UK, Little Chalfont, UK) was used for the reaction, and then a band bonded to the secondary antibody was detected by SuperSignal West Pico Chemiluminescent Substrate (manufactured by Thermo Fisher Scientific Inc., Rockford, Ill.). As a result, it was confirmed that the amount of β catenin was reduced in the nuclear fraction by IWP-2 and that a Wnt/β catenin signal was thus inhibited (see FIG. 4, (A)).

EB3DR-EpiSC [2] = experiment: CD31 (PECAM-1) expression by FACS; assay type: cell-based, mouse; conditions: for expression of CD31 (CD31 positive cell frequency): in the presence of LIF
Method: Next, the expression of CD31 (PECAM-1) in these cells was analyzed. The expression level of CD31 was checked by the FACS by using an APC labeled rat anti-mouse CD31 antibody (manufactured by eBioscience, 17-0311). […] When a colony of the CD31 expressing cell was cloned and subcultured, a mouse ES cell-like morphology was obtained (see FIG. 4, (G)), and such a cell could be subcultured continuously for a long period of time similarly to a mouse ES cell. Since the cell was derived from the EB3DR-EpiSC, DsRed was expressed therein (see FIG. 4, (H)).
(§1) The naive-like colony formation and the chimera formation were checked in the same manner as described above except that XAV939 (manufactured by Sigma-Aldrich, S. Louis, Mo., USA) was used as the Wnt/β catenin signal inhibitor instead of IWP-2.

EB3DR-EpiSC [3] = experiment: Naive pluripotent stem cell-like colony formation of EpiSC; assay type: cell-based, mouse
Method: The EB3DR-EpiSC was cultured in N2B27 medium (Ying et al., Nature (2008), 435, 519-523) supplemented with 1,000 U/mL of mouse LIF and 1 μM of PD0325901 (manufactured by Axon, Groeningen, The Netherlands). To the resultant, 5 nM of IWP-2 (manufactured by Wako Pure Chemical Industries, Ltd., Osaka, Japan) was added, or CHIR known as an inhibitor of GSK3β or the same amount of DMSO was added instead of IWP-2, so as to check the influence on the EB3DR-EpiSC.
as §1

EB3DR-EpiSC-TRE-Cdh1 = experiment: CD31 expression by FACS in E-cadherin induced EpiSC; assay type: cell-based, mouse; conditions: 7 days, with forced expression of E-cadherin (Dox(+), 10 μg/mL doxycycline)
Method: The EB3DR-EpiSC-TRE-Cdh1 was cultured for 7 days in the presence of a basic fibroblast growth factor (bFGF) or LIF in a usual medium (Dox(−)) or a medium supplemented with 10 μg/mL of doxycycline (Dox(+)), and the resultant cell was dissociated with a trypsin/EDTA solution and stained with an APC labeled anti-mouse CD31 antibody to be analyzed by using the FACS.

Compound	activation of a STAT3 signal (presence of phosphorylated STAT3) (STAT3 signal)	chimera formation (production of a chimeric animal) (EB3DR-EpiSC [1])	inhibition of Wnt/β catenin signal (Wnt/β catenin signal)	amount of β catenin in the nuclear fraction (Wnt/β catenin signal; final concentration 5 nM, 2 days, vs DMSO)	expression of CD31 (CD31 positive cell frequency) (EB3DR-EpiSC [2])	appearance of a colony corresponding to a naive pluripotent stem cell-like morphology, time after culture (EB3DR-EpiSC [3]; N2B27 medium with 1,000 U/mL mouse LIF and 1 μM PD0325901, 5 nM IWP-2)	appearance frequency of a colony characteristic to the naive pluripotent stem cell on the 14th day after culture (EB3DR-EpiSC [3]; N2B27 medium with LIF and PD0325901, 5 nM IWP-2, vs CHIR or DMSO)	proportion of the CD31 (PECAM-1) positive cell on the 7th day after treatment (EB3DR-EpiSC [2]; LIF used in combination)	naive-like colony formation on the 7th day after treatment (EB3DR-EpiSC [3]; LIF used in combination)	CD31 (Pecam1) positive cell proportion (EB3DR-EpiSC-TRE-Cdh1)
Cc1ccc2nc(NC(=O)CSc3nc4c(c(=O)n3-c3ccccc3)SCC4)sc2c1 [IWP-2, N-(6-methyl-2-benzothiazolyl)-2-[(3,4,6,7-tetrahydro-4-oxo-3-phenylthieno[3,2-d]pyrimidine-2-yl)thio]-acetamide]	also observed	confirmed, based on the fur color, as a chimeric mouse	inhibited	reduced	expressed at a high frequency in a short period of time	≤ 7 days	significantly increased	–	–	–
O=c1[nH]c(-c2ccc(C(F)(F)F)cc2)nc2c1CSCC2 [XAV939, 3,5,7,8-tetrahydro-2-[4-(trifluoromethyl)phenyl]-4H-thiopyrano[4,3-d]pyrimidine-4-one]	also observed	a chimeric animal was produced	work as an inhibitor of a Wnt/β catenin signal	–	observed at a high frequency	–	–	remarkably increased	formed a naive-like colony	–
bFGF: basic fibroblast growth factor, culture medium supplement	–	–	–	–	–	–	–	–	–	the level was merely restrictive

— patent US20160257928A1, “Method for producing pluripotent stem cell having improved chimera forming ability from primed pluripotent stem cell, and composition and combination therefor” (The University of Tokyo, priority 2015, published 2016)
